{
  "source": "ChEMBL document CHEMBL1201862",
  "about": "“PubChem BioAssay data set” (2004)",
  "key": {"[1]": {"target": "Kallikrein-7 (Homo sapiens, UniProt P49862)", "sequence (P49862 whole entry)": "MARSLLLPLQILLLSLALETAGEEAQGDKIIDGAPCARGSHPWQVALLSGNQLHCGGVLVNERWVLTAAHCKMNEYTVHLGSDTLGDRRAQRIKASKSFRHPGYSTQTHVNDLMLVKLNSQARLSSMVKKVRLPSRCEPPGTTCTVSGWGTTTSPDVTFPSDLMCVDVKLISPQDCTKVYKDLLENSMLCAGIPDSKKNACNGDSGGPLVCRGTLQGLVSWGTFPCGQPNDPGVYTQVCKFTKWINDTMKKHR", "test": "Fluorescence Intensity-based biochemical primary high throughput dose response assay to identify activators of kallikrein-7 (K7) zymogen."}, "[2]": {"target": "Mitogen-activated protein kinase 10 (Homo sapiens, UniProt P53779)", "sequence (P53779 whole entry)": "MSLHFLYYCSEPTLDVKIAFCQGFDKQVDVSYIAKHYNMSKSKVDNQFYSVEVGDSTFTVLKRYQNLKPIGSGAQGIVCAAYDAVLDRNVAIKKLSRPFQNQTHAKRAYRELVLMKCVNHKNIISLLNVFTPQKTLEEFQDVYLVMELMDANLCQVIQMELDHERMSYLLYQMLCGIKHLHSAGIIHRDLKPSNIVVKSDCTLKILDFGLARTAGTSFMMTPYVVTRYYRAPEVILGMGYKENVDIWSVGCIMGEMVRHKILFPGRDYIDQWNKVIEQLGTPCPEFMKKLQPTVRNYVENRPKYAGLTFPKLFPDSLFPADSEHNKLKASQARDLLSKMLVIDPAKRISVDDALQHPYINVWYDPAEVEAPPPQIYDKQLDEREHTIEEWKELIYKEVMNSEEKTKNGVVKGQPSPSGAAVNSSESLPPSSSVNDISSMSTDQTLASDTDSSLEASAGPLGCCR", "test": "Dose response biochemical screening assay for inhibitors of c-Jun N-Terminal Kinase 3 (JNK3). [Related pubchem assays: 746 ]"}, "[3]": {"test": "HIV-1 AD8 envelope cell-cell fusion blockers – cherry-pick, dose response (AID 652062);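 also: luciferase signal from cell-cell fusion driven by HIV-1 clade B AD8 Env; potency is for inhibitors of fusion seen as a drop in luminescence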", "assay_type": "functional, cell-based"}, "[4]": {"target": "T1, Long-chain-fatty-acid--AMP ligase FadD28 (Mycobacterium tuberculosis, UniProt P9WQ59)", "T1 sequence (P9WQ59 whole entry)": "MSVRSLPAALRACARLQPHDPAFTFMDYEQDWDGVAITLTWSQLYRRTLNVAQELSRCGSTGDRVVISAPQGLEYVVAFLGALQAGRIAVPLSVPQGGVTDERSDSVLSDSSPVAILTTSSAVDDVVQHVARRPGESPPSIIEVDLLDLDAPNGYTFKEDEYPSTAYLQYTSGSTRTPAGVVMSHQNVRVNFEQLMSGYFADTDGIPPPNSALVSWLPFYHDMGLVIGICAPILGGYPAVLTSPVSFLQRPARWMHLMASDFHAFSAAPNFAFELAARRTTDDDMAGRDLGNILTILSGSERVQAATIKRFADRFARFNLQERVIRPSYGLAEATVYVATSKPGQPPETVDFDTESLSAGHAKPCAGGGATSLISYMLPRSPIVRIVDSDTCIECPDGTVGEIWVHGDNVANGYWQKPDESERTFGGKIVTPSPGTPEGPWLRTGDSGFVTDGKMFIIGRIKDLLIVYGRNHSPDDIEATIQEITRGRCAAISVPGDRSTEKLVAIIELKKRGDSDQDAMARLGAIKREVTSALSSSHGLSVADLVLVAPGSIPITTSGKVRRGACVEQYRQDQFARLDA", "test": "Fluorescence polarization aasay to screen for inhibitors that compete for the binding of FadD28 to a bisubstrate Measured in Biochemical System Using Plate Reader - 2147-01_Inhibitor_Dose_CherryPick_Activity.", "assay_type": "functional, Mycobacterium tuberculosis H37Rv"}, "[5]": {"test": "off-target signal loss in HeLa-CEM21 co-culture – HeLa F-luc CTL cells, cherry-picked, counter-screen for HIV-1 Env fusion inhibitor project, dose response (AID 652040);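 also: potency for signal decrease marking cytotoxic or nonspecific inhibition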", "assay_type": "functional, cell-based"}, "[6]": {"target": "Voltage-dependent T-type calcium channel subunit alpha-1H (Homo sapiens, UniProt O95180)", "sequence (O95180 whole entry)": "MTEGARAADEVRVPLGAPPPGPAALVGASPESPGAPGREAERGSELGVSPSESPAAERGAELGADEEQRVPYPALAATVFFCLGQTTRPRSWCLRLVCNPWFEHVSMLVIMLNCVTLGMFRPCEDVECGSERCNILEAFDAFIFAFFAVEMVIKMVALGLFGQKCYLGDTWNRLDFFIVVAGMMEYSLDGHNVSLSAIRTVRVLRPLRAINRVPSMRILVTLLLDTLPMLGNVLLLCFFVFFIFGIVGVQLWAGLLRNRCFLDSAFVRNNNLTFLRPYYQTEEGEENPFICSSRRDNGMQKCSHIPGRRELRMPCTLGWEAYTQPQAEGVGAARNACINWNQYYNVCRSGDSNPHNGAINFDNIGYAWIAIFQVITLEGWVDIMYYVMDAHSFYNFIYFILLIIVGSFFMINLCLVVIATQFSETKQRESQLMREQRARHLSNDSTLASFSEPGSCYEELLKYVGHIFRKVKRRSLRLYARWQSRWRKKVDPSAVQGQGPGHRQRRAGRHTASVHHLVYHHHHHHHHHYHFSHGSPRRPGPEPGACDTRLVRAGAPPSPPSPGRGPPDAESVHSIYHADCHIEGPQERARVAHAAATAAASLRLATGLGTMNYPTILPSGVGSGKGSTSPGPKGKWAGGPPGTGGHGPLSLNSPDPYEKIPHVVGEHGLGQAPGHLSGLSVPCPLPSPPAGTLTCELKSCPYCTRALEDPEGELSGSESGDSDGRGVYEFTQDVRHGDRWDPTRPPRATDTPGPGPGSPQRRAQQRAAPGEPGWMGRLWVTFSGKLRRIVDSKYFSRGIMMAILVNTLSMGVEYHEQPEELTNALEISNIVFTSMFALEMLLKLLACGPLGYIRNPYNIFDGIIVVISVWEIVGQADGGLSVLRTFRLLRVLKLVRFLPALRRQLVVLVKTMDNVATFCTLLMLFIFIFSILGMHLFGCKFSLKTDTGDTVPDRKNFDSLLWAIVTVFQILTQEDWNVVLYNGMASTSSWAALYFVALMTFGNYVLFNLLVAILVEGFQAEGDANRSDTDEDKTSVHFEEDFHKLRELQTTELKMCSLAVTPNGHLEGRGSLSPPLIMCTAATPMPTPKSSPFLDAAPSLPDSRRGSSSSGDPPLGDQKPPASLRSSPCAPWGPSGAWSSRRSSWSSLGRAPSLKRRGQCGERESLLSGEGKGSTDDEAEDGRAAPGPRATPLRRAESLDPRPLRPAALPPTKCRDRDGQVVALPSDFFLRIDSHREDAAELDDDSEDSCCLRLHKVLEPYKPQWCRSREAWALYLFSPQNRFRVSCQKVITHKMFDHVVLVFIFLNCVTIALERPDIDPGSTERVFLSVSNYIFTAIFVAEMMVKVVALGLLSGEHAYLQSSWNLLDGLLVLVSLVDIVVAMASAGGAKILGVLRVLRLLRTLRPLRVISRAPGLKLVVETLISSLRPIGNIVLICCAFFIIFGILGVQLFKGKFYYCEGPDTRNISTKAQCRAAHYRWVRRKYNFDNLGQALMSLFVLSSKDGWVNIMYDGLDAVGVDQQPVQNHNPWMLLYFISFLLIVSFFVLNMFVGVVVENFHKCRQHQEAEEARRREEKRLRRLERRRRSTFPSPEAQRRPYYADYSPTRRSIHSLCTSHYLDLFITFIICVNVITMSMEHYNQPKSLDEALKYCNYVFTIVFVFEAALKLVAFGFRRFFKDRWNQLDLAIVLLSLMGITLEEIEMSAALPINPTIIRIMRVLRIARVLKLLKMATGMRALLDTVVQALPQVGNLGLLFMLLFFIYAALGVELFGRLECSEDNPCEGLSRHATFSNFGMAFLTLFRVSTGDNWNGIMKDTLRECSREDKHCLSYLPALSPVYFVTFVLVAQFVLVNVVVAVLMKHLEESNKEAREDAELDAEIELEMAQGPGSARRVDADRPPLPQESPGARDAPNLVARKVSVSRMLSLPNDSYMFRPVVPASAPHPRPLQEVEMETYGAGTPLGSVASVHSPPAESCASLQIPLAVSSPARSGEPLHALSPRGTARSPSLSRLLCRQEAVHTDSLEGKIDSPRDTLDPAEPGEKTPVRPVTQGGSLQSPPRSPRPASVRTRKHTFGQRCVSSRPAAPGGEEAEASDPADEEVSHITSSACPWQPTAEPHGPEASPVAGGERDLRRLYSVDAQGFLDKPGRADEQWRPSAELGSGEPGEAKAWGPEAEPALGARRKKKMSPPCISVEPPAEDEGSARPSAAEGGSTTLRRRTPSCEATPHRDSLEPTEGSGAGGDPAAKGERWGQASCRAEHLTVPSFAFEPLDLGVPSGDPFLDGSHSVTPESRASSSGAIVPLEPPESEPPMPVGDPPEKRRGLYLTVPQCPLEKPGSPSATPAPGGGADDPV", "assay_type": "functional"}, "[7]": {"test": "blockers of HIV-1 envelope-mediated cell-cell fusion – cherry-pick, dose response (AID 652057)", "assay_type": "functional, cell-based"}, "[8]": {"test": "HIV-1 Vif–A3G interaction blockers – biochemical, TR-FRET, GST-Vif 1-94, biotin-A3G peptide, dose response retest, primary screen (AID 1117319);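 also: inhibitors lower the FRET signal by blocking Vif and A3G binding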", "assay_type": "functional"}},
  "note": "Activity calls are given as the source filed them.",
  "data": [
    {"compound": "COc1ccc(OC)c(/C=C/C(=O)OCC(=O)NCc2ccco2)c1", "values": [
      {"measurement": "EC50", "setting": "[1]", "value": "> 69.5 µM (inactive)"}
    ]},
    {"compound": "Cc1ccc(-c2cn3cccnc3n2)cc1NC(=O)c1ccc(Br)o1", "values": [
      {"measurement": "EC50", "setting": "[1]", "value": "> 69.5 µM (inactive)"}
    ]},
    {"compound": "Cc1ccc(Nc2cc(-n3nc(C)cc3C)ncn2)cc1", "values": [
      {"measurement": "IC50", "setting": "[2]", "value": "13.4 µM (not active)"}
    ]},
    {"compound": "Cc1ccc(CSCCNC(=O)c2ccc(Cl)c(S(=O)(=O)N3CCOCC3)c2)cc1", "values": [
      {"measurement": "AC50", "setting": "[3]", "value": "7.44 µM (active)"},
      {"measurement": "AC50", "setting": "[4]", "value": "5.54 µM (active)"},
      {"measurement": "AC50", "setting": "[5]", "value": "54.5 µM (active)"},
      {"measurement": "EC50", "setting": "[6]", "value": "4.41 µM (active)"},
      {"measurement": "AC50", "setting": "[7]", "value": "25.3 µM (active)"}
    ]},
    {"compound": "CCn1c(S)nnc1Cc1c(C)[nH]c2ccccc12", "values": [
      {"measurement": "IC50", "setting": "[8]", "value": "> 100 µM (active)"}
    ]},
    {"compound": "Cc1coc2c1c(C)cc1oc(=O)c(CC(=O)NCCCCCC(=O)O)c(C)c12", "values": [
      {"measurement": "EC50", "setting": "[1]", "value": "> 69.5 µM (inactive)"}
    ]}
  ]
}
